Data reported in patent US7138361B2, “Herbicidal heterocycles” (E. I. du Pont de Nemours and Company, priority 2000, dated 2006).

What was measured:
Assay in all cases: Test C preemergence
Assay type in all cases: in vivo
Nightshade = system: Nightshade
Sunflower [1] = conditions: Rate 62 g/ha; scale 0 to 100, 0 no effect, 100 complete control
[2] = system: Surinam grass (Brachiaria decumbens); conditions: for Plant response rating (0 to 100), Surinam grass: Rate 250 g/ha, visual evaluation after 12 to 14 days
Summary of the method: (§1)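 Formulation: non-phytotoxic solvent mix incl. surfactant. Pre: applied right after planting. Post: 1–4-leaf seedlings. Read: visual 0–100, day 12–14, greenhouse.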

[3] = system: bermudagrass (Cynodon dactylon); conditions: for Plant response rating (0 to 100 where 0 is no effect and 100 is complete control), Bermudagrass: Rate 250 g/ha, visual evaluation after 12 to 14 days
Summary of the method: as §1

[4] = system: cocklebur (Xanthium strumarium); conditions: for Plant response rating (0 to 100), Cocklebur: Rate 250 g/ha, visual evaluation after 12 to 14 days
Summary of the method: as §1

[5] = system: common ragweed (Ambrosia elatior); conditions: for Plant response rating (0 to 100), Ragweed, Common: Rate 250 g/ha, visual evaluation after 12 to 14 days
Summary of the method: as §1

corn (Zea mays) = conditions: for Plant response rating (0 to 100), Corn: Rate 250 g/ha, visual evaluation after 12 to 14 days
Summary of the method: as §1

[6] = system: crabgrass (Digitaria sanguinalis); conditions: for Plant response rating (0 to 100), Crabgrass: Rate 250 g/ha, visual evaluation after 12 to 14 days
Summary of the method: as §1

[7] = system: giant foxtail (Setaria faberii); conditions: for Plant response rating (0 to 100), Foxtail, Giant: Rate 250 g/ha, visual evaluation after 12 to 14 days
Summary of the method: as §1

[8] = system: goosegrass (Eleusine indica); conditions: for Plant response rating (0 to 100), Goosegrass: Rate 250 g/ha, visual evaluation after 12 to 14 days
Summary of the method: as §1

[9] = system: johnsongrass (Sorghum halepense); conditions: for Plant response rating (0 to 100), Johnsongrass: Rate 250 g/ha, visual evaluation after 12 to 14 days
Summary of the method: as §1

kochia (Kochia scoparia) = conditions: for Plant response rating (0 to 100), Kochia: Rate 250 g/ha, visual evaluation after 12 to 14 days
Summary of the method: as §1

[10] = system: lambsquarters (Chenopodium album); conditions: for Plant response rating (0 to 100), Lambsquarters: Rate 250 g/ha, visual evaluation after 12 to 14 days
Summary of the method: as §1

[11] = system: morningglory (Ipomoea hederacea); conditions: for Plant response rating (0 to 100), Morningglory: Rate 250 g/ha, visual evaluation after 12 to 14 days
Summary of the method: as §1

[12] = system: pigweed (Amaranthus retroflexus); conditions: for Plant response rating (0 to 100), Pigweed: Rate 250 g/ha, visual evaluation after 12 to 14 days
Summary of the method: as §1

soybean (Glycine max) = conditions: for Plant response rating (0 to 100), Soybean: Rate 250 g/ha, visual evaluation after 12 to 14 days
Summary of the method: as §1

[13] = system: velvetleaf (Abutilon theophrasti); conditions: for Plant response rating (0 to 100), Velvetleaf: Rate 250 g/ha, visual evaluation after 12 to 14 days
Summary of the method: as §1

[14] = system: woolly cupgrass (Eriochloa villosa); conditions: for Plant response rating (0 to 100), Cupgrass, Woolly: Rate 250 g/ha, visual evaluation after 12 to 14 days
Summary of the method: as §1

[15] = system: yellow nutsedge (Cyperus esculentus); conditions: for Plant response rating (0 to 100), Nutsedge: Rate 250 g/ha, visual evaluation after 12 to 14 days
Summary of the method: as §1

Sunflower [16] = conditions: Rate 125 g/ha, scale 0 to 100, 0 no effect, 100 complete control
[17] = Rate 62 g/ha, scale 0 to 100, 0 no effect, 100 complete control
[18] = Rate 125 g/ha, scale 0 to 100, 0 no effect, 100 complete control
[19] = preemergence, Rate 31 g/ha, scale 0 to 100
[20] = preemergence, Rate 125 g/ha, scale 0 to 100, 0 no effect, 100 complete control

CC(C)(C)c1ccn(C2SCN(c3cccc(OC(F)F)c3)C2=O)n1 (centres unmarked) [Compound 36]
100: Plant response rating (0 to 100), Surinam grass ([2]; preemergence) | Plant response rating, Bermudagrass [3, 17] | Plant response rating, Bermudagrass [3, 19] | Plant response rating (0 to 100 where 0 is no effect and 100 is complete control), Bermudagrass ([3]; preemergence) | Plant response rating, Bermudagrass [3, 20] | Plant response rating, Crabgrass [6, 17] | Plant response rating (0 to 100), Crabgrass ([6]; preemergence) | Plant response rating, Crabgrass [6, 20] | Plant response rating (0 to 100), Foxtail, Giant ([7]; preemergence) | Plant response rating, Foxtail, Giant [7, 20] | Plant response rating, Goosegrass [8, 17] | Plant response rating (0 to 100), Goosegrass ([8]; preemergence) | Plant response rating, Goosegrass [8, 20] | Plant response rating (0 to 100), Johnsongrass ([9]; preemergence) | Plant response rating, Kochia (kochia (Kochia scoparia); [17]) | Plant response rating (0 to 100), Kochia (kochia (Kochia scoparia); preemergence) | Plant response rating, Kochia (kochia (Kochia scoparia); [20]) | Plant response rating, Lambsquarters [10, 17] | Plant response rating, Lambsquarters [10, 19] | Plant response rating (0 to 100), Lambsquarters ([10]; preemergence) | Plant response rating, Lambsquarters [10, 20] | Plant response rating (0 to 100), Pigweed ([12]; preemergence) | Plant response rating (0 to 100), Cupgrass, Woolly ([14]; preemergence) | Plant response rating, Cupgrass, Woolly [14, 20]
90: Plant response rating, Crabgrass [6, 19] | Plant response rating, Foxtail, Giant [7, 19] | Plant response rating, Goosegrass [8, 19] | Plant response rating, Johnsongrass [9, 17] | Plant response rating, Johnsongrass [9, 20]
60: Plant response rating, Cupgrass, Woolly [14, 17]
40: Plant response rating, Corn (corn (Zea mays); [20]) | Plant response rating (0 to 100), Velvetleaf ([13]; preemergence)
70: Plant response rating, Surinam grass [2, 17] | Plant response rating, Surinam grass [2, 20] | Plant response rating, Kochia (kochia (Kochia scoparia); [19])
0: Plant response rating, Nightshade (Nightshade; Rate 31 g/ha, scale 0 to 100) | Plant response rating, Sunflower (Sunflower [1]) | Plant response rating, Cocklebur [4, 19] | Plant response rating, Ragweed, Common [5, 17] | Plant response rating, Ragweed, Common [5, 19] | Plant response rating, Corn (corn (Zea mays); [19]) | Plant response rating, Foxtail, Giant [7, 17] | Plant response rating, Morningglory [11, 17] | Plant response rating, Morningglory [11, 19] | Plant response rating, Morningglory [11, 20] | Plant response rating, Pigweed [12, 17] | Plant response rating, Pigweed [12, 19] | Plant response rating, Pigweed [12, 20] | Plant response rating, Velvetleaf [13, 17] | Plant response rating, Velvetleaf [13, 19] | Plant response rating, Velvetleaf [13, 20] | Plant response rating, Nutsedge [15, 17] | Plant response rating, Nutsedge [15, 19] | Plant response rating, Sunflower (Sunflower [16])
30: Plant response rating, Nightshade (Nightshade; [17]) | Plant response rating, Cocklebur [4, 17] | Plant response rating (0 to 100), Cocklebur ([4]; preemergence) | Plant response rating, Ragweed, Common [5, 20] | Plant response rating, Soybean (soybean (Glycine max); [17]) | Plant response rating, Soybean (soybean (Glycine max); [19]) | Plant response rating, Cupgrass, Woolly [14, 19] | Plant response rating (0 to 100), Nutsedge ([15]; preemergence) | Plant response rating, Nutsedge [15, 20]
80: Plant response rating (0 to 100), Corn (corn (Zea mays); preemergence)
50: Plant response rating, Nightshade (Nightshade; [18]) | Plant response rating (0 to 100), Ragweed, Common ([5]; preemergence) | Plant response rating, Johnsongrass [9, 19] | Plant response rating (0 to 100), Morningglory ([11]; preemergence) | Plant response rating (0 to 100), Soybean (soybean (Glycine max); preemergence) | Plant response rating, Soybean (soybean (Glycine max); [20])
20: Plant response rating, Surinam grass [2, 19] | Plant response rating, Corn (corn (Zea mays); [17])

O=C1C(n2ccc(C3CCC3)n2)SCN1c1cccc(C(F)(F)F)c1 (centres unmarked) [Compound 37]
70: Plant response rating, Bermudagrass [3, 17] | Plant response rating, Foxtail, Giant [7, 20]
50: Plant response rating, Foxtail, Giant [7, 19] | Plant response rating, Kochia (kochia (Kochia scoparia); [17]) | Plant response rating (0 to 100), Soybean (soybean (Glycine max); preemergence)
80: Plant response rating, Bermudagrass [3, 20] | Plant response rating, Crabgrass [6, 19]
30: Plant response rating, Johnsongrass [9, 17] | Plant response rating, Johnsongrass [9, 20] | Plant response rating (0 to 100), Morningglory ([11]; preemergence) | Plant response rating (0 to 100), Nutsedge ([15]; preemergence)
40: Plant response rating (0 to 100), Corn (corn (Zea mays); preemergence) | Plant response rating, Corn (corn (Zea mays); [20]) | Plant response rating, Kochia (kochia (Kochia scoparia); [19])
0: Plant response rating, Nightshade (Nightshade; Rate 31 g/ha, scale 0 to 100) | Plant response rating, Nightshade (Nightshade; [17]) | Plant response rating, Nightshade (Nightshade; [18]) | Plant response rating, Sunflower (Sunflower [1]) | Plant response rating, Surinam grass [2, 17] | Plant response rating, Surinam grass [2, 19] | Plant response rating, Surinam grass [2, 20] | Plant response rating, Cocklebur [4, 19] | Plant response rating (0 to 100), Cocklebur ([4]; preemergence) | Plant response rating, Cocklebur [4, 20] | Plant response rating, Ragweed, Common [5, 17] | Plant response rating, Ragweed, Common [5, 19] | Plant response rating, Corn (corn (Zea mays); [17]) | Plant response rating, Corn (corn (Zea mays); [19]) | Plant response rating, Morningglory [11, 17] | Plant response rating, Morningglory [11, 19] | Plant response rating, Morningglory [11, 20] | Plant response rating, Pigweed [12, 17] | Plant response rating, Pigweed [12, 19] | Plant response rating, Pigweed [12, 20] | Plant response rating, Soybean (soybean (Glycine max); [17]) | Plant response rating, Soybean (soybean (Glycine max); [19]) | Plant response rating, Velvetleaf [13, 17] | Plant response rating, Velvetleaf [13, 19] | Plant response rating, Cupgrass, Woolly [14, 17] | Plant response rating, Cupgrass, Woolly [14, 19] | Plant response rating, Cupgrass, Woolly [14, 20] | Plant response rating, Nutsedge [15, 19] | Plant response rating, Sunflower (Sunflower [16])
100: Plant response rating (0 to 100 where 0 is no effect and 100 is complete control), Bermudagrass ([3]; preemergence) | Plant response rating (0 to 100), Crabgrass ([6]; preemergence) | Plant response rating (0 to 100), Foxtail, Giant ([7]; preemergence) | Plant response rating (0 to 100), Goosegrass ([8]; preemergence) | Plant response rating (0 to 100), Kochia (kochia (Kochia scoparia); preemergence) | Plant response rating, Kochia (kochia (Kochia scoparia); [20]) | Plant response rating, Lambsquarters [10, 17] | Plant response rating, Lambsquarters [10, 19] | Plant response rating (0 to 100), Lambsquarters ([10]; preemergence) | Plant response rating, Lambsquarters [10, 20] | Plant response rating (0 to 100), Pigweed ([12]; preemergence) | Plant response rating (0 to 100), Cupgrass, Woolly ([14]; preemergence)
90: Plant response rating (0 to 100), Surinam grass ([2]; preemergence) | Plant response rating, Crabgrass [6, 17] | Plant response rating, Crabgrass [6, 20] | Plant response rating, Goosegrass [8, 17] | Plant response rating, Goosegrass [8, 20] | Plant response rating (0 to 100), Johnsongrass ([9]; preemergence)
20: Plant response rating, Ragweed, Common [5, 20] | Plant response rating, Johnsongrass [9, 19] | Plant response rating (0 to 100), Velvetleaf ([13]; preemergence) | Plant response rating, Velvetleaf [13, 20] | Plant response rating, Nutsedge [15, 17] | Plant response rating, Nutsedge [15, 20]
60: Plant response rating, Bermudagrass [3, 19] | Plant response rating (0 to 100), Ragweed, Common ([5]; preemergence) | Plant response rating, Foxtail, Giant [7, 17] | Plant response rating, Goosegrass [8, 19]
